Experimental data reported in US20060247250A1 (TargeGen, Inc., priority 2005, published 2006).

Target: T1, human c-Src (Homo sapiens, UniProt P12931)
T1 construct: purchased Panvera/Invitrogen
Experiment: Src kinase inhibition, luciferase-based residual ATP (KinaseGlo)
Type: biochemical
Conditions: recombinant human c-Src, ATP 3 μM, PTK2 substrate, 90 minutes at room temperature
Protocol: The ability of compounds of the present invention to inhibit the activity of three groups of kinases was tested. Kinases tested included the src family (primarily src and yes), the angiogenic growth factors receptors (FGFR1, PDGFRb and VEGFR2) and the ephrin, EphB4. All kinase reactions were conducted in 96-well plates with a final reaction volume of 50 ul.
Recombinant human c-Src or Yes (28 ng/well, Panvera/Invitrogen, Madison Wis.), ATP (3 μM), a tyrosine kinase substrate (PTK2, 250 μM, Promega Corp., Madison Wis.), and test agents (at concentrations ranging from about 1 nM/l to about 100 μM/1), in the presence of Src kinase reaction buffer (Upstate USA, Lake Placid N.Y.). After reacting for about 90 minutes at room temperature, residual ATP was determined using a luciferase-based assay (KinaseGlo, Promega Corp.) as a measure of kinase activity. Data from four wells were then averaged and used to determine IC50 values for the test compounds (Prism software package, GraphPad Software, San Diego Calif.).

T1 sequence (P12931 whole entry): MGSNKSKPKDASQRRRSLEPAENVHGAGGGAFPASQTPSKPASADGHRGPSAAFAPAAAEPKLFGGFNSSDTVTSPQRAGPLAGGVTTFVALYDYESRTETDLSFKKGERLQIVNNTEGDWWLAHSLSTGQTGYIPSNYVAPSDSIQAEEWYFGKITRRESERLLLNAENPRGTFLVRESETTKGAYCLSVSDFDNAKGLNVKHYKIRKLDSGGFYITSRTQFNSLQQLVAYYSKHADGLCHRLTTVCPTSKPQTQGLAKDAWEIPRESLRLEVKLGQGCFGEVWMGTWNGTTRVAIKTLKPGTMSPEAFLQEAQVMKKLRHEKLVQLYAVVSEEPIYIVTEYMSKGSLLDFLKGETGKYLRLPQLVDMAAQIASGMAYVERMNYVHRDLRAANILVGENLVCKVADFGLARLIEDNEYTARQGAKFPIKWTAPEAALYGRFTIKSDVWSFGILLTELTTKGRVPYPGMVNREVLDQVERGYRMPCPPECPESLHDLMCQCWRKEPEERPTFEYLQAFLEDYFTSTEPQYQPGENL

SMILES	IC50 [nM]
O=C(Nc1cnc(Nc2cccnc2)nc1)c1cc(O)ccc1Cl [XI, Chloro-5-hydroxy-N-[2-(pyridin-3-ylamino)-pyrimidin-5-yl]-benzamide]	43
O=C(Nc1cnc(Nc2cccnc2)nc1)c1c(Cl)cccc1Cl [X, 2,6-Dichloro-N-[2-(pyridin-3-ylamino)-pyrimidin-5-yl]-benzamide]	300
O=C(Nc1cnc(Nc2ccc(S(=O)(=O)CCCN3CCCC3)cc2)nc1)c1cc(O)ccc1Cl [XXXII, 2-Chloro-5-hydroxy-N-{2-[4-(3-pyrrolidin-1-yl-propane-1-sulfonyl)-phenylamino]-pyrimidin-5-yl}-benzamide]	9.8
O=C(Nc1cnc(Nc2ccc(S(=O)(=O)CCCN3CCCC3)cc2)nc1)c1cc(Cl)ccc1Cl [XXXVII, 2,5-Dichloro-N-{2-[4-(3-pyrrolidin-1-yl-propane-1-sulfonyl)-phenylamino]-pyrimidin-5-yl}-benzamide]	1750
O=C(Nc1cnc(Nc2ccc(C(=O)N3CCNCC3)cc2)nc1)c1cc(O)ccc1Cl [LI, 2-Chloro-5-hydroxy-N-{2-[4-(piperazine-1-carbonyl)-phenylamino]-Pyrimidin-5-yl}-benzamide]	12
O=C(Nc1cnc(Nc2cccc(OCCN3CCCC3)c2)nc1)c1cc(O)ccc1Cl [XLII, N-(2-(3-(2-(Pyrrolidin-1-yl)ethoxy)phenylamino)pyrimidin-5-yl)-2-chloro-5-hydroxybenzamide]	21
COc1ccc(Cl)c(C(=O)Nc2cnc(Nc3ccc(S(=O)(=O)CCCN4CCCC4)cc3)nc2)c1 [Compound 53, 2-Chloro-5-methoxy-N-{2-[4-(3-pyrrolidin-1-yl-propane-1-sulfonyl)-phenylamino]-pyrimidin-5-yl}-benzamide]	8000
O=C(Nc1cnc(Nc2ccc(C(=O)N3CCN(CCO)CC3)nc2)nc1)c1c(Cl)cccc1Cl [II, 2,6-Dichloro-N-(2-{6-[4-(2-hydroxy-ethyl)-piperazine-1-carbonyl]-pyridin-3-ylamino}-pyrimidin-5-yl)-benzamide]	400
O=C(NCCN1CCCC1)c1ccc(Nc2ncc(NC(=O)c3cc(O)ccc3Br)cn2)cc1 [XXIII, 2-Bromo-5-hydroxy-N-{2-[4-(2-pyrrolidin-1-yl-ethylcarbamoyl)-phenylamino]-pyrimidin-5-yl}-benzamide]	13
CN1CCN(C(=O)c2ccc(Nc3ncc(NC(=O)c4c(Cl)cccc4Cl)cn3)cc2)CC1 [XIV, 2,6-Dichloro-N-{2-[4-(4-methyl-piperazine-1-carbonyl)-phenylamino]-pyrimidin-5-yl}-benzamide]	94
O=C(Nc1cnc(Nc2ccc(S(=O)(=O)CCCN3CCCC3)cc2)nc1)c1cccc(O)c1 [XXXVI, 3-Hydroxy-N-{2-[4-(3-pyrrolidin-1-yl-propane-1-sulfonyl)-phenylamino]-pyrimidin-5-yl}-benzamide]	1490
O=C(Nc1cnc(Nc2ccc(S(=O)(=O)N3CCNCC3)cc2)nc1)c1cc(O)ccc1Cl [XLVII, 2-Chloro-5-hydroxy-N-{2-[4-(piperazine-1-sulfonyl)-phenylamino]-Pyrimidin-5-yl}-benzamide]	38
Cc1nc(Nc2ncc(NC(=O)c3c(Cl)cccc3Cl)cn2)cc(N2CCN(CCO)CC2)n1 [LIII, 2,6-Dichloro-N-(2-{6-[4-(2-hydroxy-ethyl)-piperazin-1-yl]-2-methyl-pyrimidin-4-ylamino}-pyrimidin-5-yl)-benzamide]	3000
O=C(Nc1cnc(Nc2ccc(S(=O)(=O)CCCN3CCCC3)cc2)nc1)c1ccc(O)cc1Cl [XXXV, 2-Chloro-4-hydroxy-N-{2-[4-(3-pyrrolidin-1-yl-propane-1-sulfonyl)-phenylamino]-pyrimidin-5-yl}-benzamide]	462
Cc1c(O)cccc1C(=O)Nc1cnc(Nc2ccc(S(=O)(=O)CCCN3CCCC3)cc2)nc1 [XXXIII, 3-Hydroxy-2-methyl-N-{2-[4-(3-pyrrolidin-1-yl-propane-1-sulfonyl)-phenylamino]-pyrimidin-5-yl}-benzamide]	338
O=C(NCCN1CCCC1)c1ccc(Nc2ncc(NC(=O)c3c(Cl)cccc3Cl)cn2)cc1 [XXVIII, 2,6-Dichloro-N-{2-[4-(2-pyrrolidin-1-yl-ethylcarbamoyl)-phenylamino]-pyrimidin-5-yl}-benzamide]	60
CN(CCN1CCCC1)S(=O)(=O)c1ccc(Nc2ncc(NC(=O)c3c(Cl)cccc3Cl)cn2)cc1 [IV, 2,6-Dichloro-N-(2-[4-[methyl-(2-pyrrolidin-1-yl-ethyl)-sulfamoyl]-phenylamino]-pyrimidin-5-yl)-benzamide]	2100
O=C(NCCN1CCCC1)c1ccc(Nc2ncc(NC(=O)c3cc(O)ccc3Cl)cn2)cc1 [XXV, 2-Chloro-5-hydroxy-N-{2-[4-(2-pyrrolidin-1-yl-ethylcarbamoyl)-phenylamino]-pyrimidin-5-yl}-benzamide]	8.5

SMILES	IC50 [nM]
O=C(NCCN1CCCC1)c1csc(Nc2ncc(NC(=O)c3cc(O)ccc3Cl)cn2)n1 [XVIII, 2-[5-(2-Chloro-5-hydroxy-benzoylamino)-pyrimidin-2-ylamino]-thiazole-4-carboxylic acid (2-pyrrolidin-1-yl-ethyl)-amide]	20
Cc1cccc(C)c1C(=O)Nc1cnc(Nc2cccc(S(=O)(=O)NCCN(C)C)c2)nc1 [I, N-{2-[3-(2-Dimethylamino-ethylsulfamoyl)-phenylamino]-Pyrimidin-5-yl}-2,6-dimethyl-benzamide]	288
CC(C)N(CCO)C(=O)c1cccc(Nc2ncc(NC(=O)c3c(Cl)cccc3Cl)cn2)c1 [XIX, 2,6-Dichloro-N-(2-{3-[(2-hydroxy-ethyl)-isopropyl-carbamoyl]-phenylamino}-pyrimidin-5-yl)-benzamide]	25
O=C(Nc1cnc(Nc2ccc(OCCN3CCCC3)cc2)nc1)c1cc(O)ccc1Cl [XXXVIII, N-(2-(4-(2-(Pyrrolidin-1-yl)ethoxy)phenylamino)pyrimidin-5-yl)-2-chloro-5-hydroxybenzamide]	27
Cc1c(O)cccc1C(=O)Nc1cnc(Nc2ccc(C(=O)N3CCN(C)CC3)cc2)nc1 [XVII, 2-Methyl-3-hydroxy-N-{2-[4-(4-methyl-piperazine-1-carbonyl)-phenylamino]-pyrimidin-5-yl}-benzamide]	550
Cc1cccc(C)c1C(=O)Nc1cnc(Nc2ccc(S(=O)(=O)NCCN3CCCC3)cc2)nc1 [VI, 2,6-Dimethyl-N-{2-[4-(2-pyrrolidin-1-yl-ethylsulfamoyl)-phenylamino]-pyrimidin-5-yl}-benzamide]	90
CC(C)N(CCO)C(=O)c1cccc(Nc2ncc(NC(=O)c3cc(O)ccc3Cl)cn2)c1 [XX, 2-Chloro-5-hydroxy-N-(2-{3-[(2-hydroxy-ethyl)-isopropyl-carbamoyl]-phenylamino}-pyrimidin-5-yl)-benzamide]	19
O=C(Nc1cnc(Nc2ccc(S(=O)(=O)CCCN3CCCC3)cc2)nc1)c1c(Cl)cccc1Cl [XXXIV, 2,6-Dichloro-N-{2-[4-(3-pyrrolidin-1-yl-pronane-1-sulfonyl)-phenylamino]-pyrimidin-5-yl}-benzamide]	119
Cc1cccc(C)c1C(=O)Nc1cnc(Nc2ccc(C(=O)N3CCNCC3)cc2)nc1 [L, 2,6-Dimethyl-N-{2-[4-(piperazine-1-carbonyl)-phenylamino]-pyrimidin-5-yl}-benzamide]	183
O=C(NCCN1CCCC1)c1ccc(Nc2ncc(NC(=O)c3ccc(O)cc3Cl)cn2)cc1	85
O=C(NCCN1CCCC1)c1ccc(Nc2ncc(NC(=O)c3cc(O)ccc3Cl)cn2)cn1 [IX, 5-[5-(2-Chloro-5-hydroxy-benzoylamino)-pyrimidin-2-ylamino]-Pyridine-2-carboxylic acid (2-pyrrolidin-1-yl-ethyl)-amide]	13
CN1CCN(C(=O)c2ccc(Nc3ncc(NC(=O)c4cc(O)ccc4Cl)cn3)cc2)CC1 [XVI, 2-Chloro-5-hydroxy-N-{2-[4-(4-methyl-piperazine-1-carbonyl)-phenylamino]-pyrimidin-5-yl}-benzamide]	21
CC(C)N(CCO)C(=O)c1ccc(Nc2ncc(NC(=O)c3cc(O)ccc3Cl)cn2)cc1 [XXII, 2-Chloro-5-hydroxy-N-(2-{4-[(2-hydroxy-ethyl)-isopropyl-carbamoyl]-phenylamino}-pyrimidin-5-yl)-benzamide]	43
N#Cc1cccc(C(=O)Nc2cnc(Nc3ccc(S(=O)(=O)CCCN4CCCC4)cc3)nc2)c1 [XXXI, 3-Cyano-N-{2-[4-(3-pyrrolidin-1-yl-propane-1-sulfonyl)-phenylamino]-pyrimidin-5-yl}-benzamide]	> 10000
O=C(Nc1cc(O)ccc1Cl)c1cnc(Nc2ccc(OCCN3CCCC3)cc2)nc1C(F)(F)F [XXX, 2-[4-(2-Pyrrolidin-1-yl-ethoxy)-phenylamino]-4-trifluoromethyl-pyrimidine-5-carboxylic acid (2-chloro-5-hydroxy-phenyl)-amide]	1340
Cc1cccc(C)c1C(=O)Nc1cnc(Nc2ccc(OCCN3CCCC3)cc2)nc1 [XXXIX, N-(2-(4-(2-(Pyrrolidin-1-yl)ethoxy)phenylamino)pyrimidin-5-yl)-2,6-dimethyl-benzamide]	104
O=C(Nc1cnc(Nc2ccc(S(=O)(=O)NCCN3CCCC3)cc2)nc1)c1cc(O)ccc1Cl [VII, 2-Chloro-5-hydroxy-N-{2-[4-(2-pyrrolidin-1-yl-ethylsulfamoyl)-phenylamino]-pyrimidin-5-yl}-benzamide]	13
Cc1cccc(C)c1C(=O)Nc1cnc(Nc2cccc(OCCN3CCCC3)c2)nc1 [XLIII, N-(2-(3-(2-(Pyrrolidin-1-yl)ethoxy)phenylamino)pyrimidin-5-yl)-2,6-dimethylbenzamide]	99
